In patent publication EP4745137A1 (Gluetacs Therapeutics (Shanghai) Co., Ltd., priority 2023, dated 2025):
pIC50: −log10 of the molar value.

Experiments:
MV-4-11 = assay: Tumor cell proliferation inhibition (CellTiter-Meiluncell Luminescent Cell Viability Assay), MV-4-11; details: Homo sapiens, MV4-11, read-out: inhibitory activity (IC50, nM) against tumor cells proliferation, MV-4-11
Experimental: The tumor cells used herein were cultured in a cell culture medium listed in table 2 at 37°C in an incubator with 5% CO2. Prior to experimentation, all cell lines used were correctly identified by STR profiling, and tested negative for mycoplasma contamination using a mycoplasma detection kit through routine screenings.
On the following day, the test compounds of the present disclosure were subjected to serial dilution. […] Subsequently, 0.5 µL of the test compound dilution was transferred into the 96-well plate containing the cells, with each well containing 100 µL of cell culture medium. […] Into the 96-well plate, the diluted test compounds and corresponding detection reagents were added, resulting in final test compound concentrations of 500 nM and 10 nM, respectively.
After the cells were treated with the compounds of the present disclosure for a specified period (the treatment durations were shown in Table 3), the cell viability assay reagent was added to the culture medium according to the kit's instructions to determine cell viability. […] All controls were treated using the same procedure as the compounds of the present disclosure. The growth inhibition curves for the compounds of the present disclosure were plotted using Prism GraphPad software, and the IC50 values were calculated therefrom.

MM.1S = assay: Tumor cell proliferation inhibition (CellTiter-Meiluncell Luminescent Cell Viability Assay), MM.1S; details: Homo sapiens, MM1.S, read-out: inhibitory activity (IC50, nM) against tumor cells proliferation, MM.1S
GSPT1 = biological target: T1, GSPT1 (Homo sapiens, UniProt P15170+Q96SW2); assay: Western-blot assay of substrate protein degradation in hPBMCs, GSPT1; assay type: cell-based; details: 24 hours of compound treatment, 50 nM and 500 nM tested (concentration behind the class not stated)
T1 construct: endogenous in cells; host or cells: hPBMCs (Milecell Biotechnologies)

Jurkat = assay: Tumor cell proliferation inhibition (CellTiter-Meiluncell Luminescent Cell Viability Assay), Jurkat; details: Homo sapiens, read-out: inhibitory activity (IC50, nM) against tumor cells proliferation, Jurkat
[1] = system: Human acute T lymphocytic leukemia cells (Molt-4); assay: Tumor cell proliferation inhibition (CellTiter-Meiluncell Luminescent Cell Viability Assay), Molt-4; details: MOLT-4, read-out: inhibitory activity (IC50, nM) against tumor cells proliferation, Molt-4
IKZF3 = biological target: T2, IKZF3 (Homo sapiens, UniProt Q96SW2+Q9UKT9); assay: Western-blot assay of substrate protein degradation in hPBMCs, IKZF3; assay type: cell-based; details: 24 hours of compound treatment, 50 nM and 500 nM tested (concentration behind the class not stated)
T2 construct: endogenous in cells; host or cells: hPBMCs (Milecell Biotechnologies)
T2 sequence (Q9UKT9 whole entry): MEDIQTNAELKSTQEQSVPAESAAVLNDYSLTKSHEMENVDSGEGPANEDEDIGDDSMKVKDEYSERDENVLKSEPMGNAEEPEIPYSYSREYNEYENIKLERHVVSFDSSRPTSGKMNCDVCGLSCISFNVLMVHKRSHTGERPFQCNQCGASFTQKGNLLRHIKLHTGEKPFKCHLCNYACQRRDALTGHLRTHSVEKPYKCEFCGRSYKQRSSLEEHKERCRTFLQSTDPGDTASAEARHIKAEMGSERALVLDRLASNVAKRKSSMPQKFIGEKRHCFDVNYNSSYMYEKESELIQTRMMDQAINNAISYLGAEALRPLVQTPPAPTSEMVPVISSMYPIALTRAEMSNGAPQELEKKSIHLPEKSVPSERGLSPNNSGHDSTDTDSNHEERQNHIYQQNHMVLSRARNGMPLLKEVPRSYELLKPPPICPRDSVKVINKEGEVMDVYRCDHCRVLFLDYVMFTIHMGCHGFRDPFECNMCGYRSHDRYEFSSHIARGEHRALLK
T2 sequence (Q96SW2 whole entry): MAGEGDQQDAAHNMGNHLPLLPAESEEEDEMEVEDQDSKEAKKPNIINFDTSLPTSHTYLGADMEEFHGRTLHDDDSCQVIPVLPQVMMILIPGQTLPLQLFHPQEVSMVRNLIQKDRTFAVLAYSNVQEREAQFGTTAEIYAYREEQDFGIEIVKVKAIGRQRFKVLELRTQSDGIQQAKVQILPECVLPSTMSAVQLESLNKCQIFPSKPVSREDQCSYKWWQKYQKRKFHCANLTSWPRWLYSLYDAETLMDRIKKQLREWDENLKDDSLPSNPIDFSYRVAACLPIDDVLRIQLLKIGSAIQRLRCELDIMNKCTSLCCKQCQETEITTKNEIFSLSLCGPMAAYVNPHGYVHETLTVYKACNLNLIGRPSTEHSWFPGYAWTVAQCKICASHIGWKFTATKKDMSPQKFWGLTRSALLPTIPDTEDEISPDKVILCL
T2 sequence (Q16531 whole entry partner): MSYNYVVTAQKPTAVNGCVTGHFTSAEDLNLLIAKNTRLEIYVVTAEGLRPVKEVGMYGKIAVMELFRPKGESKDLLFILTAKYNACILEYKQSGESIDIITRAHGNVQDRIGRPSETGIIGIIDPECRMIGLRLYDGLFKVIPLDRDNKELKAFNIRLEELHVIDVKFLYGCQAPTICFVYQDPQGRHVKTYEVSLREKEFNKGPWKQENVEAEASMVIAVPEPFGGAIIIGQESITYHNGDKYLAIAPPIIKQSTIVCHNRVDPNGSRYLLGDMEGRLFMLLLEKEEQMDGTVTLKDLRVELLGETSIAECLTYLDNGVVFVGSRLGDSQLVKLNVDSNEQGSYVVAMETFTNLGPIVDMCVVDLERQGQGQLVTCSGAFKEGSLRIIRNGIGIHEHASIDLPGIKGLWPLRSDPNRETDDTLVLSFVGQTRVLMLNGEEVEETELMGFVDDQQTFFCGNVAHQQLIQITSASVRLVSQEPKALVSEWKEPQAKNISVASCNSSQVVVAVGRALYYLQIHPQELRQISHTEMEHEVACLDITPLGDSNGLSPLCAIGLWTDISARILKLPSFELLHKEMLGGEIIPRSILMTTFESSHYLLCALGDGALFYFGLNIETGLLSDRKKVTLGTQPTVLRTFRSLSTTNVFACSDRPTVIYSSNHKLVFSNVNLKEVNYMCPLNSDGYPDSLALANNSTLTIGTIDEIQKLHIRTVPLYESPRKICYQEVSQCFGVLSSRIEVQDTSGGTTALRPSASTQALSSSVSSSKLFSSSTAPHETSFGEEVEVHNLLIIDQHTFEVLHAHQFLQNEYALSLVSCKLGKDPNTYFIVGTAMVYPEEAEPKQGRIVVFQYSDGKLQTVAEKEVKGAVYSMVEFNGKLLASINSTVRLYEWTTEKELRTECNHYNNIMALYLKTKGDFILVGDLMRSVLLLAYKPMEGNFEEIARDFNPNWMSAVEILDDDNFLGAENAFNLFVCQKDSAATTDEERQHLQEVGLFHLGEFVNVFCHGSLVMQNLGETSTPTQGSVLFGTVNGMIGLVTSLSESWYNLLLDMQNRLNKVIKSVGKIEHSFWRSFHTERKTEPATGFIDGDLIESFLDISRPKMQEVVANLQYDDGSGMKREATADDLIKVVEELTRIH

IKZF2 = biological target: T3, IKZF2 (Homo sapiens, UniProt Q96SW2+Q9UKS7); assay: Western-blot assay of substrate protein degradation in hPBMCs, IKZF2; assay type: cell-based; details: 24 hours of compound treatment, 50 nM and 500 nM tested (concentration behind the class not stated)
T3 construct: endogenous in cells; host or cells: hPBMCs (Milecell Biotechnologies)
T3 sequence (Q9UKS7 whole entry): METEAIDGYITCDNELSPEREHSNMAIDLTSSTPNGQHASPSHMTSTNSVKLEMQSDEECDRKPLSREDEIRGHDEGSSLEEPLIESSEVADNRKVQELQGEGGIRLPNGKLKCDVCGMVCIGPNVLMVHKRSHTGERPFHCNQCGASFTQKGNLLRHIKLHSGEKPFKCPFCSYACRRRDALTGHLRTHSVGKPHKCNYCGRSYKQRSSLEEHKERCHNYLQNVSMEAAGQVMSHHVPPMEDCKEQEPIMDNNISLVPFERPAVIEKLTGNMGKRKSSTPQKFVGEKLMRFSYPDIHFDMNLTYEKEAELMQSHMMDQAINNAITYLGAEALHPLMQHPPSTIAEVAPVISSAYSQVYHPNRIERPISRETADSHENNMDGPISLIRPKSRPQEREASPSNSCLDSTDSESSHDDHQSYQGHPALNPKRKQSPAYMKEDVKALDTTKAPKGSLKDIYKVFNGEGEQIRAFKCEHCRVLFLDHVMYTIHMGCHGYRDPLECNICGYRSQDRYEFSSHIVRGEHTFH
T3 sequence (Q96SW2 whole entry): as the sequence (Q96SW2 whole entry) above
T3 sequence (Q16531 whole entry partner): as the sequence (Q16531 whole entry partner) above

IKZF1 = biological target: T4, IKZF1 (Homo sapiens, UniProt Q13422+Q96SW2); assay: Western-blot assay of substrate protein degradation in hPBMCs, IKZF1; assay type: cell-based; details: 24 hours of compound treatment, 50 nM and 500 nM tested (concentration behind the class not stated)
T4 construct: endogenous in cells; host or cells: hPBMCs (Milecell Biotechnologies)
T4 sequence (Q13422 whole entry): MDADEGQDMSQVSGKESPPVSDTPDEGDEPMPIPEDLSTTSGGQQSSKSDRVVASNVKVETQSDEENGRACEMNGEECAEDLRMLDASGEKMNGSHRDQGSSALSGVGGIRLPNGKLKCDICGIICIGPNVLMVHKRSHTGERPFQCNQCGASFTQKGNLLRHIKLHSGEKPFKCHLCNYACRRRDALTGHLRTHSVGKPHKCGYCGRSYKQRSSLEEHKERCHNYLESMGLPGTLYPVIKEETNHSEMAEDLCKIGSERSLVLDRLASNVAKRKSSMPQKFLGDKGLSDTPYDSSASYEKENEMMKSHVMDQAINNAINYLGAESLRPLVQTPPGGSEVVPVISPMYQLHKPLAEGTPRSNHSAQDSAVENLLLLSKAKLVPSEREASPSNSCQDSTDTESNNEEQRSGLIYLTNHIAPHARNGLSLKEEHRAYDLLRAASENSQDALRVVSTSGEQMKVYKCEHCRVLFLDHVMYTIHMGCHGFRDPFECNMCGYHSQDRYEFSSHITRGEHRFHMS
T4 sequence (Q96SW2 whole entry): as the sequence (Q96SW2 whole entry) above
T4 sequence (Q16531 whole entry partner): as the sequence (Q16531 whole entry partner) above

[2] = biological target: T5, human Cereblon WT GST-tagged protein (Homo sapiens, UniProt Q96SW2); assay: CRBN-binding affinity by HTRF (CEREBLON BINDING kit); details: HTRF inhibitory activity, CEREBLON BINDING kit; read-out: HTRF IC50
T5 construct: purchased CISBIO 64BDCRBNPEH
T5 sequence (Q96SW2 whole entry): as the sequence (Q96SW2 whole entry) above

CK1α = biological target: T6, CK1α (Homo sapiens, UniProt P48729+Q96SW2); assay: Western-blot assay of substrate protein degradation in hPBMCs, CK1α; assay type: cell-based; details: 24 hours of compound treatment, 50 nM and 500 nM tested (concentration behind the class not stated)
T6 construct: endogenous in cells; host or cells: hPBMCs (Milecell Biotechnologies)
T6 sequence (P48729 whole entry): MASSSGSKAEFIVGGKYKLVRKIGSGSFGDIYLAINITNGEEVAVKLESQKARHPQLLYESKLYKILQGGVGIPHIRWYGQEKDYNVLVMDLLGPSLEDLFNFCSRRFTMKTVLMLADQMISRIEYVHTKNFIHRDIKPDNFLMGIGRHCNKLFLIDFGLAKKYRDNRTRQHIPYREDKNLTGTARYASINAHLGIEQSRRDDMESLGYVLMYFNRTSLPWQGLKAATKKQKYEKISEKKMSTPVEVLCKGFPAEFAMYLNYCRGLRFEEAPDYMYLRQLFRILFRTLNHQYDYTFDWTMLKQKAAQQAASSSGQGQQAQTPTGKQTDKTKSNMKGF
T6 sequence (Q96SW2 whole entry): as the sequence (Q96SW2 whole entry) above
T6 sequence (Q16531 whole entry partner): as the sequence (Q16531 whole entry partner) above

WEE1 = biological target: T7, WEE1 (Homo sapiens, UniProt P30291+Q96SW2); assay: Western-blot assay of substrate protein degradation in hPBMCs, WEE1; assay type: cell-based; details: 24 hours of compound treatment, 50 nM and 500 nM tested (concentration behind the class not stated)
T7 construct: endogenous in cells; host or cells: hPBMCs (Milecell Biotechnologies)
T7 sequence (P30291 whole entry): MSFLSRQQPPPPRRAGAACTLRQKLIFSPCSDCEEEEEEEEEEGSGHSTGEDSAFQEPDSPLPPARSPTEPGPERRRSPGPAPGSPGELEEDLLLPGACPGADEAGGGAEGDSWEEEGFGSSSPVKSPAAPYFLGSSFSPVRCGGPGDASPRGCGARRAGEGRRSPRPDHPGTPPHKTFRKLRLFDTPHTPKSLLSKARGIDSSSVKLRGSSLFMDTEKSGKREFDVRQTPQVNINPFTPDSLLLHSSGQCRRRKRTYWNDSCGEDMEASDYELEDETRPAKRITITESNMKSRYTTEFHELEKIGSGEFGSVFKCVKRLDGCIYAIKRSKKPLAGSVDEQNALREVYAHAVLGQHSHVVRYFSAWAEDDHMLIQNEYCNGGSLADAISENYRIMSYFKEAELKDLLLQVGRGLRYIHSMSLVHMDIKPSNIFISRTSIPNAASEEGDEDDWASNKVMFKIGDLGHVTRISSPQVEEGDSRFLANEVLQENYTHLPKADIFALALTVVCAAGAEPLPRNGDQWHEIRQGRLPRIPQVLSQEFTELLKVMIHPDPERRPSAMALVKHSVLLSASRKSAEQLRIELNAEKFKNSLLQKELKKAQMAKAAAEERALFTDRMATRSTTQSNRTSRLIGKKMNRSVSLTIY
T7 sequence (Q96SW2 whole entry): as the sequence (Q96SW2 whole entry) above
T7 sequence (Q16531 whole entry partner): as the sequence (Q16531 whole entry partner) above

CCRF-CEM = assay: Tumor cell proliferation inhibition (CellTiter-Meiluncell Luminescent Cell Viability Assay), CCRF-CEM; details: Homo sapiens, read-out: inhibitory activity (IC50, nM) against tumor cells proliferation, CCRF-CEM

Compound	IC50 (MV-4-11) [nM]	IC50 (MM.1S) [nM]	IC50 [1] [nM]	pIC50 [2]	IC50 (CCRF-CEM) [nM]	GSPT1 substrate protein remaining % (GSPT1)	IC50 (Jurkat) [nM]	IKZF3 substrate protein remaining % (IKZF3)	IKZF2 substrate protein remaining % (IKZF2)	IKZF 1 substrate protein remaining % (IKZF1)	CK1a substrate protein remaining % (CK1α)	Weel substrate protein remaining % (WEE1)
O=C1CCC(N2C(=O)c3ccc(CN4CC=C(c5nccc(Cl)c5Cl)CC4)cc3C2=O)C(=O)N1 (stereo not shown) [GT-06608, 5-((3,4-dichloro-3',6'-dihydro-[2,4'-bipyridin]-1'(2'H)-yl)methyl)-2-(2,6-dioxopiperidin-3-yl)isoindoline-1,3-dione]	10 to 50	100 to 500	100 to 500	5.82 to 6.00	100 to 500	A (0% ≤ substrate protein remaining % ≤ 80%)	100 to 500	B (80%< substrate protein remaining %≤ 100%)	B (80%< substrate protein remaining %≤ 100%)	B (80%< substrate protein remaining %≤ 100%)	B (80%< substrate protein remaining %≤ 100%)	B (80%< substrate protein remaining %≤ 100%)
O=C1CCC(N2C(=O)c3ccc(CN4CCC(c5c[nH]c6cc(F)ccc56)CC4)cc3C2=O)C(=O)N1 (stereo not shown) [GT-06633, 2-(2,6-dioxopiperidin-3-yl)-5-((4-(6-fluoro-1H-indol-3-yl)piperidin-1-yl)methyl)isoindoline-1,3-dione]	50 to 100	100 to 500	100 to 500	–	100 to 500	A (0% ≤ substrate protein remaining % ≤ 80%)	100 to 500	A (0% ≤ substrate protein remaining % ≤ 80%)	A (0% ≤ substrate protein remaining % ≤ 80%)	A (0% ≤ substrate protein remaining % ≤ 80%)	A (0% ≤ substrate protein remaining % ≤ 80%)	A (0% ≤ substrate protein remaining % ≤ 80%)
Cn1cc(C2CCN(Cc3ccc4c(c3)C(=O)N(C3CCC(=O)NC3=O)C4=O)CC2)c2ccc(F)cc21 (stereo not shown) [GT-06635, 2-(2,6-dioxopiperidin-3-yl)-5-((4-(6-fluoro-1-methyl-1H-indol-3-yl)piperidin-1-yl)methyl)isoindoline-1,3-dione]	10 to 50	100 to 500	50 to 100	–	50 to 100	A (0% ≤ substrate protein remaining % ≤ 80%)	100 to 500	A (0% ≤ substrate protein remaining % ≤ 80%)	A (0% ≤ substrate protein remaining % ≤ 80%)	A (0% ≤ substrate protein remaining % ≤ 80%)	A (0% ≤ substrate protein remaining % ≤ 80%)	A (0% ≤ substrate protein remaining % ≤ 80%)
O=C1CCC(N2C(=O)c3ccc(CN4CC=C(c5ncnc6sc7c(c56)CCCC7)CC4)cc3C2=O)C(=O)N1 (stereo not shown) [GT-06680, 2-(2,6-dioxopiperidin-3-yl)-5-((4-(5,6,7,8-tetrahydrobenzo[4,5]thieno[2,3-d]pyrimidin-4-yl)-3,6-dihydropyridin-1(2H)-yl)methyl)isoindoline-1,3-dione]	10 to 50	100 to 500	100 to 500	5.72 to 5.82	100 to 500	A (0% ≤ substrate protein remaining % ≤ 80%)	–	A (0% ≤ substrate protein remaining % ≤ 80%)	A (0% ≤ substrate protein remaining % ≤ 80%)	A (0% ≤ substrate protein remaining % ≤ 80%)	B (80%< substrate protein remaining %≤ 100%)	A (0% ≤ substrate protein remaining % ≤ 80%)

More lines, main results first:

IC50 (MV-4-11) [nM]	IC50 (MM.1S) [nM]	IC50 [1] [nM]	pIC50 [2]	IC50 (CCRF-CEM) [nM]	Compound	GSPT1 substrate protein remaining % (GSPT1)	IC50 (Jurkat) [nM]	IKZF3 substrate protein remaining % (IKZF3)	IKZF2 substrate protein remaining % (IKZF2)	IKZF 1 substrate protein remaining % (IKZF1)	CK1a substrate protein remaining % (CK1α)	Weel substrate protein remaining % (WEE1)
10 to 50	500 to 1000	100 to 500	5.72 to 5.82	50 to 100	O=C1CCC(N2C(=O)c3ccc(CN4CCN(c5n[nH]c6cc(F)ccc56)CC4)cc3C2=O)C(=O)N1 (stereo not shown) [GT-06632, 2-(2,6-dioxopiperidin-3-yl)-5-((4-(6-fluoro-1H-indazol-3-yl)piperazin-1-yl)methyl)isoindoline-1,3-dione]	A (0% ≤ substrate protein remaining % ≤ 80%)	100 to 500	A (0% ≤ substrate protein remaining % ≤ 80%)	A (0% ≤ substrate protein remaining % ≤ 80%)	A (0% ≤ substrate protein remaining % ≤ 80%)	A (0% ≤ substrate protein remaining % ≤ 80%)	A (0% ≤ substrate protein remaining % ≤ 80%)
10 to 50	100 to 500	10 to 50	5.82 to 6.00	10 to 50	CC(C)c1cc2c(C3=CCN(Cc4ccc5c(c4)C(=O)N(C4CCC(=O)NC4=O)C5=O)CC3)ncnc2s1 (stereo not shown) [GT-06656, 2-(2,6-dioxopiperidin-3-yl)-5-((4-(6-isopropylthieno[2,3-d]pyrimidin-4-yl)-3,6-dihydropyridin-1(2H)-yl)methyl)isoindoline-1,3-dione]	A (0% ≤ substrate protein remaining % ≤ 80%)	50 to 100	A (0% ≤ substrate protein remaining % ≤ 80%)	A (0% ≤ substrate protein remaining % ≤ 80%)	A (0% ≤ substrate protein remaining % ≤ 80%)	B (80%< substrate protein remaining %≤ 100%)	A (0% ≤ substrate protein remaining % ≤ 80%)
10 to 50	100 to 500	100 to 500	–	100 to 500	Cc1ccc(Sc2ccccc2N2CCN(Cc3ccc4c(c3)C(=O)N(C3CCC(=O)NC3=O)C4=O)CC2)c(C)c1 (stereo not shown) [GT-06761, 5-((4-(2-((2,4-dimethylphenyl)thio)phenyl)piperazin-1-yl)methyl)-2-(2,6-dioxopiperidin-3-yl)isoindoline-1,3-dione]	A (0% ≤ substrate protein remaining % ≤ 80%)	–	A (0% ≤ substrate protein remaining % ≤ 80%)	A (0% ≤ substrate protein remaining % ≤ 80%)	A (0% ≤ substrate protein remaining % ≤ 80%)	A (0% ≤ substrate protein remaining % ≤ 80%)	A (0% ≤ substrate protein remaining % ≤ 80%)
